Measured values published in US20250074890A1, “CYANOPYRIDINE AND CYANOPYRIMIDINE BCL6 DEGRADERS” (DANA-FARBER CANCER INSTITUTE, INC., priority 2021, published 2025).

Each compound was assayed against T1, BCL6 (Homo sapiens, UniProt P41182) (assay: HiBiT cellular degradation assay in Su-DHL-4 cells). Conditions: concentration to reach 50% degradation of endogenous SmBiT-tagged BCL6, 24 hours of compound treatment.
T1 construct: Endogenous BCL6 was tagged with the 11-amino acid SmBiT through CRISPR/Cas9 gene editing; endogenous in cells; host or cells: Su-DHL-4 (CRISPR/Cas9 knock-in, single cell clone)
Type: cell-based
Protocol: DC50 (concentration to reach 50% degradation) values were determined from a cellular degradation assay (HiBiT, Promega™) in Su-DHL-4 cells (Table 1). Endogenous BCL6 was tagged with the 11-amino acid SmBiT through CRISPR/Cas9 gene editing and single cell clone selection. After 24 hours of compound treatment, cells were lysed and incubated with LgBiT protein to reconstitute intact nanoluciferase. Substrate was then added and relative luciferase units were measured. Degradation levels for each treatment were taken as a percentage compared to the control, 100% DMSO (Prism).

Row | Structure (SMILES) | DC50 [nM]
1 | CNC(=O)COc1cc2cc(Nc3nc(N4C[C@@H](C)C(F)(F)[C@@H](C)C4)c(C#N)cc3Cl)ccc2n(CC2CCO2)c1=O (stereo partly drawn) [Compound 6, 2-((6-((3-Chloro-5-cyano-6-((3R,5S)-4,4-difluoro-3,5-dimethylpiperidin-1-yl)pyridin-2-yl)amino)-1-(oxetan-2-ylmethyl)-2-oxo-1,2-dihydroquinolin-3-yl)oxy)-N-methylacetamide] | 13
2 | C[C@H]1CN(c2nc(Nc3ccc4c(c3)n(CCC(C)(C)O)c(=O)n4C)c(Cl)cc2C#N)C[C@@H](O)[C@H]1F [Compound 51, 5-chloro-2-((3R,4S,5S)-4-fluoro-3-hydroxy-5-methylpiperidin-1-yl)-6-((3-(3-hydroxy-3-methylbutyl)-1-methyl-2-oxo-2,3-dihydro-1H-benzo[d]imidazol-5-yl)amino)nicotinonitrile] | > 400
3 | C[C@H]1CN(c2nc(Nc3ccc4c(c3)n(CCC(C)(C)O)c(=O)n4C)c(Cl)cc2C#N)C[C@@H](N)C1(F)F (single isomer, unassigned) [Compound 49] | > 400
4 | CNC(=O)COc1cc2cc(Nc3nc(N4C[C@@H](C)C[C@@H](N)C4)c(C#N)cc3Cl)ccc2n(C)c1=O [Compound 39, 2-((6-((6-((3R,5S)-3-Amino-5-methylpiperidin-1-yl)-3-chloro-5-cyanopyridin-2-yl)amino)-1-methyl-2-oxo-1,2-dihydroquinolin-3-yl)oxy)-N-methylacetamide] | 41
5 | CNC(=O)COc1cc2cc(Nc3nc(N4C[C@@H](N)C(F)(F)[C@@H](C)C4)c(C#N)cc3Cl)ccc2n(C)c1=O [Compound 44, 2-((6-((6-((3R,5S)-3-amino-4,4-difluoro-5-methylpiperidin-1-yl)-3-chloro-5-cyanopyridin-2-yl)amino)-1-methyl-2-oxo-1,2-dihydroquinolin-3-yl)oxy)-N-methylacetamide] | 70
6 | C[C@H]1C[C@@H](N)CN(c2nc(Nc3ccc4c(c3)n(CCC(C)(C)O)c(=O)n4C)c(Cl)cc2C#N)C1 [Compound 35, 2-((3R,5S)-3-Amino-5-methylpiperidin-1-yl)-5-chloro-6-((3-(3-hydroxy-3-methylbutyl)-1-methyl-2-oxo-2,3-dihydro-1H-benzo[d]imidazol-5-yl)amino)nicotinonitrile] | > 400

Results, then the compound that gave them:

Row | DC50 [nM] | Structure (SMILES)
7 | 80 | C[C@@H]1CN(c2nc(Nc3ccc4c(c3)n(C[C@@H]3COC(=O)N3)c(=O)n4C)c(F)cc2C#N)C[C@H](C)[C@@H]1F [Compound 88, 5-Fluoro-2-((3S,4S,5R)-4-fluoro-3,5-dimethylpiperidin-1-yl)-6-((1-methyl-2-oxo-3-(((R)-2-oxooxazolidin-4-yl)methyl)-2,3-dihydro-1H-benzo[d]imidazol-5-yl)amino)nicotinonitrile]
8 | 33 | C[C@@H]1CN(c2nc(Nc3ccc4c(c3)n(CCC(C)(C)O)c(=O)n4C)c(F)cc2C#N)C[C@H](O)C1(F)F [Compound 82, 2-((3S,5R)-4,4-difluoro-3-hydroxy-5-methylpiperidin-1-yl)-5-fluoro-6-((3-(3-hydroxy-3-methylbutyl)-1-methyl-2-oxo-2,3-dihydro-1H-benzo[d]imidazol-5-yl)amino)nicotinonitrile]
9 | 7 | CNC(=O)COc1cc2cc(Nc3nc(N4C[C@@H](C)[C@H](F)[C@@H](C)C4)c(C#N)cc3Cl)ccc2n(C)c1=O [Compound 64, 2-((6-((3-chloro-5-cyano-6-((3R,4r,5S)-4-fluoro-3,5-dimethylpiperidin-1-yl)pyridin-2-yl)amino)-1-methyl-2-oxo-1,2-dihydroquinolin-3-yl)oxy)-N-methylacetamide]
10 | 4 | CNC(=O)COc1cc2cc(Nc3nc(N4CC(C)CC(O)C4)c(C#N)cc3Cl)ccc2n(CCN(C)C)c1=O (stereo not shown) [Compound 76, 2-((6-((3-Chloro-5-cyano-6-(3-hydroxy-5-methylpiperidin-1-yl)pyridin-2-yl)amino)-1-(2-(dimethylamino)ethyl)-2-oxo-1,2-dihydroquinolin-3-yl)oxy)-N-methylacetamide]
